According to patent US4386090A, “Nitrogen containing 2,3-dihydro naphthalenes, compositions and use” (Delalande S.A., priority 1980, dated 1983):
Where a name gives a salt, the structure may show the parent alone.

Tests used:
acute toxicity (LD 50) = details: in vivo, ip
Excerpt: To illustrate the invention, there are shown in table IV below, the results obtained in these two tests and the acute toxicity (LD 50) of some compounds of formula (I).

mice [1] = test: analgesic activity, phenylbenzoquinone test (E. SIEGMUND); format: in vivo; details: Mus musculus, ip, read-out: ED 50 analgesic property
Excerpt: Soc. Exp. Biol. and Med. 95, 729, (1957).

mice [2] = test: antidepressive activity, antagonism to ptosis after intravenous injection of reserpine; format: in vivo; details: Mus musculus, ip, 1 h, i.p., ptosis observed an hour after i.v. reserpine 2 mg/kg, read-out: ED 50 antidepressive property
Excerpt: GOURET and J. THOMAS in J. Pharmacol. (Paris) (1973), 4, 401.

Compound `CN(C)CCC1Cc2ccccc2C(c2cccc(Cl)c2)=N1` (stereo not shown) [compound 26] has an LD50 (acute toxicity (LD 50)) of 65 mg/kg, an ED50 (mice [1]) of 7.6 mg/kg and an ED50 (mice [2]) of 5.4 mg/kg.

`Cc1ccc(C2=NC(CCN(C)C)Cc3ccccc32)cc1` (stereo not shown) [compound 33] showed an LD50 (acute toxicity (LD 50)) of 70 mg/kg, an ED50 (mice [1]) of 8.8 mg/kg and an ED50 (mice [2]) of 2.7 mg/kg.

With `CN(C)CC1COc2ccccc2C(c2ccccc2F)=N1` (stereo not shown) [compound 41] the LD50 (acute toxicity (LD 50)) was 62 mg/kg, the ED50 (mice [1]) was 7.2 mg/kg and the ED50 (mice [2]) was 3.5 mg/kg.

`CN(C)CC1Cc2ccc(F)cc2C(c2ccccc2)=N1` (stereo not shown) [compound 10] showed an LD50 (acute toxicity (LD 50)) of 60 mg/kg, an ED50 (mice [1]) of 4 mg/kg and an ED50 (mice [2]) of 2.8 mg/kg.

`CN(C)CCC1Cc2ccccc2C(c2ccccc2C(F)(F)F)=N1` (stereo not shown) [compound 103] showed an LD50 (acute toxicity (LD 50)) of 70 mg/kg and an ED50 (mice [2]) of 3.8 mg/kg.

Work on `CN(C)CCC1COc2ccccc2C(c2ccccc2)=N1` (stereo not shown) [compound 45] yielded an LD50 (acute toxicity (LD 50)) of 160 mg/kg, an ED50 (mice [1]) of 16.5 mg/kg and an ED50 (mice [2]) of 12 mg/kg.

With `CN(C)CCC1C=C(c2ccccc2)c2ccccc2C1` (stereo not shown) [Code Number 2] the LD50 (acute toxicity (LD 50)) was 110 mg/kg, the ED50 (mice [1]) was 7.3 mg/kg and the ED50 (mice [2]) was 1 mg/kg.

Compound `CN(C)CCC1Cc2ccccc2C(c2ccc(Cl)cc2)=N1` (stereo not shown) [compound 27] has an LD50 (acute toxicity (LD 50)) of 70 mg/kg, an ED50 (mice [1]) of 11 mg/kg and an ED50 (mice [2]) of 4.4 mg/kg.

In the case of `COc1ccc2c(c1)C(c1ccccc1)=NC(CN1CCN(C)CC1)C2` (stereo not shown) [compound 100], the LD50 (acute toxicity (LD 50)) is reported as 140 mg/kg, the ED50 (mice [1]) is reported as 30 mg/kg and the ED50 (mice [2]) is reported as 9 mg/kg.

With `CN(C)CC1C=C(c2ccccc2)c2ccccc2C1` (stereo not shown) [Code Number 1, 3-Dimethylaminomethyl 1-phenyl 3,4-dihydro naphthalene, oxalate] the LD50 (acute toxicity (LD 50)) was 62 mg/kg, the ED50 (mice [1]) was 6 mg/kg and the ED50 (mice [2]) was 10 mg/kg.

With `CN(C)CC1COc2ccccc2C(c2ccccc2Cl)=N1` (stereo not shown) [compound 42] the LD50 (acute toxicity (LD 50)) was 70 mg/kg, the ED50 (mice [1]) was 3.5 mg/kg and the ED50 (mice [2]) was 7 mg/kg.

`COc1cc2c(cc1OC)C(c1ccccc1)=NC(CCN(C)C)C2` (stereo not shown) [compound 105] showed an LD50 (acute toxicity (LD 50)) of 165 mg/kg, an ED50 (mice [1]) of 12 mg/kg and an ED50 (mice [2]) of 30 mg/kg.

Compound `CN(C)CCC1Cc2ccccc2C(c2ccccc2Cl)=N1` (stereo not shown) [compound 25] has an LD50 (acute toxicity (LD 50)) of 60 mg/kg, an ED50 (mice [1]) of 3.8 mg/kg and an ED50 (mice [2]) of 3.7 mg/kg.

Work on `CN1CCN(CC2Cc3ccccc3C(c3ccccc3)=N2)CC1` (stereo not shown) [compound 7] yielded an LD50 (acute toxicity (LD 50)) of 170 mg/kg, an ED50 (mice [1]) of 6.2 mg/kg and an ED50 (mice [2]) of 10 mg/kg.

`CN(C)CCC1Cc2ccccc2C(c2ccc(F)cc2)=N1` (stereo not shown) [compound 24] showed an LD50 (acute toxicity (LD 50)) of 61 mg/kg, an ED50 (mice [1]) of 8.4 mg/kg and an ED50 (mice [2]) of 2.1 mg/kg.

`COc1ccc(C2=NC(CCN(C)C)Cc3ccccc32)cc1` (stereo not shown) [compound 30] gave an LD50 (acute toxicity (LD 50)) of 70 mg/kg and an ED50 (mice [2]) of 4.2 mg/kg.

`COc1cccc(C2=NC(CCN(C)C)Cc3ccccc32)c1` (stereo not shown) [compound 29] showed an LD50 (acute toxicity (LD 50)) of 78 mg/kg, an ED50 (mice [1]) of 10 mg/kg and an ED50 (mice [2]) of 6.8 mg/kg.

Compound `CN(C)CCC1Cc2c(Cl)cccc2C(c2ccccc2)=N1` (stereo not shown) [compound 18] has an LD50 (acute toxicity (LD 50)) of 70 mg/kg and an ED50 (mice [1]) of 1 mg/kg.

For `CN(C)CCC1Cc2ccc(Cl)cc2C(c2ccccc2)=N1` (stereo not shown) [compound 19], the LD50 (acute toxicity (LD 50)) was 95 mg/kg, the ED50 (mice [1]) was 4 mg/kg and the ED50 (mice [2]) was 3.8 mg/kg.

Compound `COc1ccccc1C1=NC(CCN(C)C)Cc2ccccc21` (stereo not shown) [compound 28] has an LD50 (acute toxicity (LD 50)) of 42 mg/kg, an ED50 (mice [1]) of 10 mg/kg and an ED50 (mice [2]) of 3 mg/kg.

Work on `CNCCC1Cc2ccccc2C(c2ccccc2F)=N1` (stereo not shown) [compound 21] yielded an LD50 (acute toxicity (LD 50)) of 70 mg/kg, an ED50 (mice [1]) of 10 mg/kg and an ED50 (mice [2]) of 1.2 mg/kg.

`CN(C)CCC1Cc2ccccc2C(c2ccccc2[N+](=O)[O-])=N1` (stereo not shown) [compound 34] showed an LD50 (acute toxicity (LD 50)) of 77 mg/kg, an ED50 (mice [1]) of 3.4 mg/kg and an ED50 (mice [2]) of 1 mg/kg.

`CN(C)CCC1Cc2ccccc2C(c2ccccc2F)=N1` (stereo not shown) [compound 22] gave an LD50 (acute toxicity (LD 50)) of 70 mg/kg, an ED50 (mice [1]) of 6.2 mg/kg and an ED50 (mice [2]) of 0.6 mg/kg.

In the case of `NCCC1Cc2ccccc2C(c2ccccc2F)=N1` (stereo not shown) [compound 20], the LD50 (acute toxicity (LD 50)) is reported as 62 mg/kg, the ED50 (mice [1]) is reported as 3.7 mg/kg and the ED50 (mice [2]) is reported as 1.8 mg/kg.

For `NCCC1Cc2ccccc2C(c2ccccc2)=N1` (stereo not shown) [compound 15], the LD50 (acute toxicity (LD 50)) was 67 mg/kg, the ED50 (mice [1]) was 10 mg/kg and the ED50 (mice [2]) was 0.9 mg/kg.

`Cc1ccc2c(c1)C(c1ccccc1)=NC(CN1CCCCC1)C2` (stereo not shown) [compound 97] gave an LD50 (acute toxicity (LD 50)) of 52 mg/kg and an ED50 (mice [1]) of 10 mg/kg.

Work on `CN(C)CCC1Cc2ccccc2C(c2ccc([N+](=O)[O-])cc2)=N1` (stereo not shown) [compound 35] yielded an LD50 (acute toxicity (LD 50)) of 80 mg/kg, an ED50 (mice [1]) of 8 mg/kg and an ED50 (mice [2]) of 8 mg/kg.

`CN1CCN(CCC2Cc3c(Cl)cccc3C(c3ccccc3)=N2)CC1` (stereo not shown) [compound 106] showed an LD50 (acute toxicity (LD 50)) of 145 mg/kg and an ED50 (mice [1]) of 12 mg/kg.
